Tests used:
Conditions in all cases: Compound concentration 10.0 uM, Protein concentration 2.0 uM
[1] = biological target: Bromodomain-containing protein 2 (Homo sapiens) (UniProt P25440)
[2] = biological target: Bromodomain-containing protein 2 (Homo sapiens) (UniProt P25440); remark: listed apart in the source
[3] = biological target: Histone acetyltransferase KAT2B (Homo sapiens) (UniProt Q92831)
[4] = biological target: Nuclear body protein SP140-like protein (Homo sapiens) (UniProt Q9H930)
Nuclear body protein SP140-like protein (Homo sapiens), sequence (Q9H930 whole entry): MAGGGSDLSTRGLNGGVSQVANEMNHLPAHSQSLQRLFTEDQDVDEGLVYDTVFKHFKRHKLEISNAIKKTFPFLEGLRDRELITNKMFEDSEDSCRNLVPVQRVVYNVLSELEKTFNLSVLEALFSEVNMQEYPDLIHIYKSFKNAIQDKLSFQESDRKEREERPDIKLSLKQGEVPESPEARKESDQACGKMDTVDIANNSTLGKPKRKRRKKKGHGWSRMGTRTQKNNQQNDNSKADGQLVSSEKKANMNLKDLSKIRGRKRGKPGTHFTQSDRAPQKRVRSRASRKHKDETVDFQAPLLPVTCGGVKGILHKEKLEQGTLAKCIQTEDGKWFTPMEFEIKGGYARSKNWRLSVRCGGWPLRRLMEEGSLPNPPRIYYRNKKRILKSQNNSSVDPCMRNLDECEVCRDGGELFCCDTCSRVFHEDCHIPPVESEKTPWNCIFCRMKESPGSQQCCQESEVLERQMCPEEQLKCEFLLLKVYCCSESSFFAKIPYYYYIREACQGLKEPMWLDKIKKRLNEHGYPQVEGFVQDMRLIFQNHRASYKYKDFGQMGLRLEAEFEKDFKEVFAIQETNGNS

Bromodomain-containing protein 2 (Homo sapiens), sequence (P25440 whole entry, looked up): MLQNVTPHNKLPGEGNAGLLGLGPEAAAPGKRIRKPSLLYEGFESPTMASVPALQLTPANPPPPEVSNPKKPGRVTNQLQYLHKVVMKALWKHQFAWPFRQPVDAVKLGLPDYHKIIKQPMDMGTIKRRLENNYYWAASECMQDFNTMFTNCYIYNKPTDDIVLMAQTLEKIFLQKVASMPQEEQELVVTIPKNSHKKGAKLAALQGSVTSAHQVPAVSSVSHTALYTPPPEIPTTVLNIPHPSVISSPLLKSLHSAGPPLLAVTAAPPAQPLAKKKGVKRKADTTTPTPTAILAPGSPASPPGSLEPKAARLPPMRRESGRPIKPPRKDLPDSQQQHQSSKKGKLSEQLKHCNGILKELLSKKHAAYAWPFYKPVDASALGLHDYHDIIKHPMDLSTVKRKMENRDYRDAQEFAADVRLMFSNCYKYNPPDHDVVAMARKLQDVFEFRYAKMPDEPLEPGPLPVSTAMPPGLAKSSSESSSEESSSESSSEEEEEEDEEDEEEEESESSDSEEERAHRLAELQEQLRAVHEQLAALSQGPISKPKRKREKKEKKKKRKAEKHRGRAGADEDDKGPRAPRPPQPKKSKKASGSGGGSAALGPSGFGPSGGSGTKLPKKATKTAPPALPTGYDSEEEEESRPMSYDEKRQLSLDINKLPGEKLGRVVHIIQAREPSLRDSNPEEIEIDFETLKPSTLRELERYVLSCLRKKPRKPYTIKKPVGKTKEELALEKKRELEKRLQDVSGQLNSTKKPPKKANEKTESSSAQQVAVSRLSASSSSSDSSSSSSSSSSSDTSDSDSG
Histone acetyltransferase KAT2B (Homo sapiens), sequence (Q92831 whole entry, looked up): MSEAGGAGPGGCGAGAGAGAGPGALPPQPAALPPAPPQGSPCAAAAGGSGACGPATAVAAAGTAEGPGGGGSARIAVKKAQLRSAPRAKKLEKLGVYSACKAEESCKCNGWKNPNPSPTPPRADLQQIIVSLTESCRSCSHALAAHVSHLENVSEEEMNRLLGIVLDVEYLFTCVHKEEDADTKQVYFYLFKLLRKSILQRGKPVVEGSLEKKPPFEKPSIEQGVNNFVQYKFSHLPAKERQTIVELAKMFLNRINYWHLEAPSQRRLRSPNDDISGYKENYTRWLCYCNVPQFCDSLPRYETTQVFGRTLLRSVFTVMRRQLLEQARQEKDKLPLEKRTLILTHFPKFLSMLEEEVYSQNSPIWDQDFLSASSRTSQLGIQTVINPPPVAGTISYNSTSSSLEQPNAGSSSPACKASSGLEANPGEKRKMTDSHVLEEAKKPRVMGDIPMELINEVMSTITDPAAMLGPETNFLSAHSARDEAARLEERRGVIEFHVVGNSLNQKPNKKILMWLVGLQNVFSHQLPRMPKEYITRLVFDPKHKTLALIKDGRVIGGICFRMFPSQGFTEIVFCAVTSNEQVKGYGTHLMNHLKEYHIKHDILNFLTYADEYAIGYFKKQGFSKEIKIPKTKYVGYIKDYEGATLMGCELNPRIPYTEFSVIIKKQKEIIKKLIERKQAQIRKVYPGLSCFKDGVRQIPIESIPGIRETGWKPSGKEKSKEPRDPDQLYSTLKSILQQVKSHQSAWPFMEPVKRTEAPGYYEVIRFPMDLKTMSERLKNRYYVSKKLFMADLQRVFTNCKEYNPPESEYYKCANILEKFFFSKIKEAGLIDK

## Cc1sc2c(c1C)C(c1ccc(Cl)cc1)=N[C@@H](CC(=O)OC(C)(C)C)c1nnc(C)n1-2
[1]
  ΔTm: 5.58 °C
[2]
  ΔTm: 8.16 °C
[3]
  ΔTm: 0.7 °C
[4]
  ΔTm: -0.07 °C

Source: ChEMBL document CHEMBL4649996, “Selective inhibition of BET bromodomains” (Nature, 2010)
